Values quoted from earlier work as cited in US20140303227A1, “TRANSMUCOSAL HORMONE DELIVERY SYSTEM” (Pharmaceutical Productions Inc., priority 2013, published 2014).

Conditions: pH 6.8

Structure (SMILES): CN1CCCC1c1cccnc1 (stereo not shown) [nicotine]
- nicotine in the free base form: about 10%
